System: 328373-195-R-J1-PDC complex spheroids, viability % test/control
Assay: Anticancer human tumor 328373-195-R-J1-PDC patient-derived head and neck squamous carcinoma cell line growth inhibition [CLK]
Settings: for IC50: curve of first compound; for viability, T/C: stronger effect = lower value
Outline: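 Patient-derived tumor cells grown as complex spheroids with HUVEC endothelial cells and mesenchymal stem cells, treated with drug combinations. Concentrations descend in half-log steps from near clinical Cmax, or from 10 microM if Cmax unknown.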
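Also: spheroids exposed to the agents for 7 days.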

`Nc1ccccc1NC(=O)c1ccc(CNC(=O)OCc2cccnc2)cc1` + CNC(=O)c1ccc(Nc2nc(OC3CCCC3)c3c(-c4ccc5nc(C)oc5c4)c[nH]c3n2)c(OC)c1 was tested, and the IC50 (second compound 0.0316 µM) was 55 nM, the IC50 (second compound 0.1 µM) was < 31.6 nM and the IC50 (second compound 0.316 µM) was < 31.6 nM. The IC50 (second compound 1 µM) was < 31.6 nM, the IC50 (second compound 3.16 µM) was < 31.6 nM and the IC50 (second compound 10 µM) was < 31.6 nM. For the same compound, the viability, T/C (second compound 0.0316 µM, first compound 0.0316 µM) was 54.2%, the viability, T/C (second compound 0.0316 µM, first compound 0.1 µM) was 46.5% and the viability, T/C (second compound 0.0316 µM, first compound 0.316 µM) was 35.2%. It also gave a viability, T/C (second compound 0.0316 µM, first compound 1 µM) of 23.1%, a viability, T/C (second compound 0.0316 µM, first compound 3.16 µM) of 19.5% and a viability, T/C (second compound 0.0316 µM, first compound 10 µM) of 4.85%. The viability, T/C (second compound 0.1 µM, first compound 0.0316 µM) was 12.5%, the viability, T/C (second compound 0.1 µM, first compound 0.1 µM) was 11.8% and the viability, T/C (second compound 0.1 µM, first compound 0.316 µM) was 10.5%. The viability, T/C (second compound 0.1 µM, first compound 1 µM) was 12.9%, the viability, T/C (second compound 0.1 µM, first compound 3.16 µM) was 13.8% and the viability, T/C (second compound 0.1 µM, first compound 10 µM) was 4.28%. The viability, T/C (second compound 0.316 µM, first compound 0.0316 µM) was 9.94%, the viability, T/C (second compound 0.316 µM, first compound 0.1 µM) was 9.86% and the viability, T/C (second compound 0.316 µM, first compound 0.316 µM) was 8.75%. It also gave a viability, T/C (second compound 0.316 µM, first compound 1 µM) of 9.9%, a viability, T/C (second compound 0.316 µM, first compound 3.16 µM) of 15.7% and a viability, T/C (second compound 0.316 µM, first compound 10 µM) of 4.12%. It also gave a viability, T/C (second compound 1 µM, first compound 0.0316 µM) of 9.33%, a viability, T/C (second compound 1 µM, first compound 0.1 µM) of 7.31% and a viability, T/C (second compound 1 µM, first compound 0.316 µM) of 9.56%. The viability, T/C (second compound 1 µM, first compound 1 µM) was 11.4%, the viability, T/C (second compound 1 µM, first compound 3.16 µM) was 14.1% and the viability, T/C (second compound 1 µM, first compound 10 µM) was 3.25%. For the same compound, the viability, T/C (second compound 3.16 µM, first compound 0.0316 µM) was 9.23%, the viability, T/C (second compound 3.16 µM, first compound 0.1 µM) was 8.04% and the viability, T/C (second compound 3.16 µM, first compound 0.316 µM) was 10.8%. For the same compound, the viability, T/C (second compound 3.16 µM, first compound 1 µM) was 10.7%, the viability, T/C (second compound 3.16 µM, first compound 3.16 µM) was 15.6% and the viability, T/C (second compound 3.16 µM, first compound 10 µM) was 3.34%. It also gave a viability, T/C (second compound 10 µM, first compound 0.0316 µM) of 12.2%, a viability, T/C (second compound 10 µM, first compound 0.1 µM) of 9.96% and a viability, T/C (second compound 10 µM, first compound 0.316 µM) of 10.2%. The viability, T/C (second compound 10 µM, first compound 1 µM) was 12.4%, the viability, T/C (second compound 10 µM, first compound 3.16 µM) was 15.5% and the viability, T/C (second compound 10 µM, first compound 10 µM) was 3.38%.

With `NC(=O)C(=Cn1cnc(-c2cc(C(F)(F)F)cc(C(F)(F)F)c2)n1)c1cncnc1` + CNC(=O)c1ccc(Nc2nc(OC3CCCC3)c3c(-c4ccc5nc(C)oc5c4)c[nH]c3n2)c(OC)c1 the IC50 (second compound 0.0316 µM) was < 9.49 nM, the IC50 (second compound 0.1 µM) was < 9.49 nM and the IC50 (second compound 0.316 µM) was < 9.49 nM. For the same compound, the IC50 (second compound 1 µM) was < 9.49 nM, the IC50 (second compound 3.16 µM) was < 9.49 nM and the IC50 (second compound 10 µM) was < 9.49 nM. The viability, T/C (second compound 0.0316 µM, first compound 0.00949 µM) was 38.7%, the viability, T/C (second compound 0.0316 µM, first compound 0.03 µM) was 20.8% and the viability, T/C (second compound 0.0316 µM, first compound 0.0949 µM) was 0.53%. It also gave a viability, T/C (second compound 0.0316 µM, first compound 0.3 µM) of 0.2%, a viability, T/C (second compound 0.0316 µM, first compound 0.949 µM) of 0.1% and a viability, T/C (second compound 0.0316 µM, first compound 3 µM) of 0.07%. For the same compound, the viability, T/C (second compound 0.1 µM, first compound 0.00949 µM) was 15.9%, the viability, T/C (second compound 0.1 µM, first compound 0.03 µM) was 3.9% and the viability, T/C (second compound 0.1 µM, first compound 0.0949 µM) was 0.26%. The viability, T/C (second compound 0.1 µM, first compound 0.3 µM) was 0.16%, the viability, T/C (second compound 0.1 µM, first compound 0.949 µM) was 0.11% and the viability, T/C (second compound 0.1 µM, first compound 3 µM) was 0.06%. For the same compound, the viability, T/C (second compound 0.316 µM, first compound 0.00949 µM) was 6.88%, the viability, T/C (second compound 0.316 µM, first compound 0.03 µM) was 2.56% and the viability, T/C (second compound 0.316 µM, first compound 0.0949 µM) was 0.37%. It also gave a viability, T/C (second compound 0.316 µM, first compound 0.3 µM) of 0.09%, a viability, T/C (second compound 0.316 µM, first compound 0.949 µM) of 0.1% and a viability, T/C (second compound 0.316 µM, first compound 3 µM) of 1.78%. For the same compound, the viability, T/C (second compound 1 µM, first compound 0.00949 µM) was 5.63%, the viability, T/C (second compound 1 µM, first compound 0.03 µM) was 1.81% and the viability, T/C (second compound 1 µM, first compound 0.0949 µM) was 0.17%. The viability, T/C (second compound 1 µM, first compound 0.3 µM) was 0.06%, the viability, T/C (second compound 1 µM, first compound 0.949 µM) was 0.08% and the viability, T/C (second compound 1 µM, first compound 3 µM) was 0.06%. It also gave a viability, T/C (second compound 3.16 µM, first compound 0.00949 µM) of 5.68%, a viability, T/C (second compound 3.16 µM, first compound 0.03 µM) of 1.86% and a viability, T/C (second compound 3.16 µM, first compound 0.0949 µM) of 0.15%. The viability, T/C (second compound 3.16 µM, first compound 0.3 µM) was 0.15%, the viability, T/C (second compound 3.16 µM, first compound 0.949 µM) was 1.8% and the viability, T/C (second compound 3.16 µM, first compound 3 µM) was 0.15%. For the same compound, the viability, T/C (second compound 10 µM, first compound 0.00949 µM) was 5.83%, the viability, T/C (second compound 10 µM, first compound 0.03 µM) was 2.16% and the viability, T/C (second compound 10 µM, first compound 0.0949 µM) was 0.18%. For the same compound, the viability, T/C (second compound 10 µM, first compound 0.3 µM) was 0.11%, the viability, T/C (second compound 10 µM, first compound 0.949 µM) was 0.18% and the viability, T/C (second compound 10 µM, first compound 3 µM) was 0.15%.
